Measured values reported in patent US20240067632A1, “WEE1 Degrading Compounds and Uses Thereof” (Bristol-Myers Squibb Company, priority 2022, published 2024).
pEC50: −log10 of the molar value. Read-outs that look alike come from different tables or passages of the source.

Columns and labels:
MKN45 cells = test: MKN45 cell proliferation assay (Cell-Titer-Glo, 120 h); assay type: cell-based; details: for pEC50: Homo sapiens, MKN-45, 120 h, Cell-Titer-Glo, read-out: MKN45 Cell Prolif. 120 hr (EC50); for MKN45 Cell Prolif. 120 hr (Ymin-Obs): minimal percent of DMSO control observed in the concentrations tested
Procedure, shortened: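 Growth inhibition was read as blank-corrected Cell-Titer-Glo luminescence expressed as percent DMSO control after 120 h at 37 C, 400 cells/well. Compounds tested in triplicate as 10-point half-log series from 1 or 10 uM, 0.1% DMSO; four-parameter fit gave EC50, and lowest observed percent control was reported as Ymin-obs.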

WEE1 = molecular target: T1, WEE1 (Homo sapiens, UniProt P30291+Q96SW2); test: WEE1-ePL degradation assay (LentiX-WEE1-ePL-GSPT1-ND cells, InCELL Hunter luminescence, 4 h); assay type: cell-based; details: 293T-LentiX WEE1-ePL cells; for DC50: read-out: 293T-LentiX WEE1-ePL Degradation 4 hr (EC50)
T1 construct: C-terminal ePL-tagged (DiscoverX, Fremont, CA) full-length WEE1 expression construct; expressed in transfected cells; host or cells: LentiX-HEK293T (Invitrogen), lentiviral transduction; co-expressing GSPT1-GN (G576N, lacking the first 158 amino acids)
Procedure, shortened: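 Luminescent readout (InCELL Hunter, 30 min RT) of WEE1-ePL levels in transduced HEK293T cells after 4 h compound exposure at 37 °C. Dosing: 10 points, 3-fold steps, top 1 uM or 10 uM. EC50 from four-parameter logistic fit; Ymax set by DMSO.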

[1] = lower limit of the fit (0 = luciferase inhibitor, Ymax = DMSO control)
[2] = lower limit of the fit (Ymin=0 luciferase inhibitor, Ymax DMSO control)

pEC50 (MKN45 cells; growth inhibition)	293T-LentiX WEE1-ePL Degradation 4 hr (Ymin) (WEE1; [1])	DC50 (WEE1)	pEC50 (MKN45 cells)	293T-LentiX WEE1-ePL Degradation 4 hr (Ymin) (WEE1; [2])	SMILES	MKN45 Cell Prolif. 120 hr (Ymin-Obs) (MKN45 cells)
7.05	46	11.7 nM	–	–	COCc1ccc2nc(CN3CC[C@H](Oc4ccc5c(c4)CN(C4CCC(=O)NC4=O)C5=O)C3)ccc2c1 (stereo partly drawn) [3-(5-{[(3S)-1-{[6-(methoxymethyl)quinolin-2-yl]methyl}pyrrolidin-3-yl]oxy}-1-oxo-2,3-dihydro-1H-isoindol-2-yl)piperidine-2,6-dione]	26.02
8.55	36	1.94 nM	–	–	O=C1CCC(N2Cc3cc(O[C@H]4CCN(Cc5ccc6nc(N7CC8(CCOCC8)C7)ccc6c5)C4)ccc3C2=O)C(=O)N1 (stereo partly drawn) [3-(5-{[(3S)-1-[(2-{7-oxa-2-azaspiro[3.5]nonan-2-yl}quinolin-6-yl)methyl]pyrrolidin-3-yl]oxy}-1-oxo-2,3-dihydro-1H-isoindol-2-yl)piperidine-2,6-dione]	10.13
8.73	30	1.66 nM	–	–	O=C1CCC(N2Cc3cc(O[C@H]4CCN(Cc5cc6ccc([C@@H]7CCOC7)cc6cn5)C4)ccc3C2=O)C(=O)N1 (stereo partly drawn) [3-(1-oxo-5-{[(3S)-1-({7-[(3S)-oxolan-3-yl]isoquinolin-3-yl}methyl)pyrrolidin-3-yl]oxy}-2,3-dihydro-1H-isoindol-2-yl)piperidine-2,6-dione]	7.635
6.12	34	20.8 nM	–	–	O=C1CCC(N2Cc3cc(O[C@H]4CCN(Cc5cc6c(cn5)OCC6)C4)ccc3C2=O)C(=O)N1 (stereo partly drawn) [3-(5-{[(3S)-1-({2H,3H-furo[2,3-c]pyridin-5-yl}methyl)pyrrolidin-3-yl]oxy}-1-oxo-2,3-dihydro-1H-isoindol-2-yl)piperidine-2,6-dione]	25.455
7.64	38	6.94 nM	–	–	O=C1CCC(N2Cc3cc(O[C@H]4CCN(Cc5ccnc(-c6ccccc6)c5)C4)ccc3C2=O)C(=O)N1 (stereo partly drawn) [3-(1-oxo-5-{[(3S)-1-[(2-phenylpyridin-4-yl)methyl]pyrrolidin-3-yl]oxy}-2,3-dihydro-1H-isoindol-2-yl)piperidine-2,6-dione]	9.19
8.57	28.27	2.09 nM	–	–	CO[C@H]1C[C@@H](c2ccc3cc(CN4CC[C@H](Oc5ccc6c(c5)CN(C5CCC(=O)NC5=O)C6=O)C4)ccc3n2)C1 (stereo partly drawn) [drawing 577, 3-(1-oxo-5-{[(3S)-1-({2-[(1s,3s)-3-methoxycyclobutyl]quinolin-6-yl}methyl)pyrrolidin-3-yl]oxy}-2,3-dihydro-1H-isoindol-2-yl)piperidine-2,6-dione]	7.76
–	–	0.985 nM	9.02	26.61	C[C@@H]1CN(Cc2cc(F)c3nc([C@H]4CCOC4)ccc3c2)C[C@H]1Oc1ccc2c(c1)CN([C@H]1CCC(=O)NC1=O)C2=O [(3S)-3-(5-{[(3S,4R)-1-({8-fluoro-2-[(3R)-oxolan-3-yl]quinolin-6-yl}methyl)-4-methylpyrrolidin-3-yl]oxy}-1-oxo-2,3-dihydro-1H-isoindol-2-yl)piperidine-2,6-dione]	7.865
6.31	44	38.9 nM	–	–	O=C1CCC(N2Cc3cc(O[C@H]4CCN(Cc5ccnc6c5CCCO6)C4)ccc3C2=O)C(=O)N1 (stereo partly drawn) [3-(1-oxo-5-{[(3S)-1-({2H,3H,4H-pyrano[2,3-b]pyridin-5-yl}methyl)pyrrolidin-3-yl]oxy}-2,3-dihydro-1H-isoindol-2-yl)piperidine-2,6-dione]	27.04
–	–	5.4 nM	8.78	25.61	COC[C@@H]1CN(Cc2ccc3nc(N4CCOCC4)ncc3c2)C[C@H]1Oc1ccc2c(c1)CN([C@H]1CCC(=O)NC1=O)C2=O [(3S)-3-(5-{[(3S,4S)-4-(methoxymethyl)-1-{[2-(morpholin-4-yl)quinazolin-6-yl]methyl}pyrrolidin-3-yl]oxy}-1-oxo-2,3-dihydro-1H-isoindol-2-yl)piperidine-2,6-dione]	8.574
–	–	6.8 nM	8.60	33.9	COC[C@H]1CC[C@H](c2ccc3cc(CN4CC[C@H](Oc5ccc6c(c5)CN(C5CCC(=O)NC5=O)C6=O)C4)ccc3n2)C1 (stereo partly drawn) [3-(5-{[(3S)-1-({2-[(1S,3S)-3-(methoxymethyl)cyclopentyl]quinolin-6-yl}methyl)pyrrolidin-3-yl]oxy}-1-oxo-2,3-dihydro-1H-isoindol-2-yl)piperidine-2,6-dione]	8.033
7.78	35.43	19.5 nM	–	–	O=C1CCC(N2Cc3cc(O[C@H]4CCN(Cc5ccc6nc(N7CC[C@]78CCOC8)ncc6c5)C4)ccc3C2=O)C(=O)N1 (stereo partly drawn) [3-(5-{[(3S)-1-({2-[(4R)-6-oxa-1-azaspiro[3.4]octan-1-yl]quinazolin-6-yl}methyl)pyrrolidin-3-yl]oxy}-1-oxo-2,3-dihydro-1H-isoindol-2-yl)piperidine-2,6-dione]	13.42
< 5.00	50.89	83.4 nM	–	–	CC(c1cnc2ccccc2c1)N1CC[C@@H](Oc2ccc3c(c2)CN(C2CCC(=O)NC2=O)C3=O)C1 (stereo in doubt) [rel-3-(1-oxo-5-{[(3R)-1-[1-(quinolin-3-yl)ethyl]pyrrolidin-3-yl]oxy}-2,3-dihydro-1H-isoindol-2-yl)piperidine-2,6-dione]	76.71
7.43	26.805	5.31 nM	–	–	Cc1cccc2ncc(CN3CC[C@H](Oc4ccc5c(c4)CN(C4CCC(=O)NC4=O)C5=O)C3)cc12 (stereo partly drawn) [3-(5-{[(3S)-1-[(5-methylquinolin-3-yl)methyl]pyrrolidin-3-yl]oxy}-1-oxo-2,3-dihydro-1H-isoindol-2-yl)piperidine-2,6-dione]	12.09
8.79	29.67	2.07 nM	–	–	CO[C@@H]1CC[C@H](c2ccc3cc(CN4CC[C@H](Oc5ccc6c(c5)CN(C5CCC(=O)NC5=O)C6=O)C4)ccc3n2)C1 (stereo partly drawn) [3-(5-{[(3S)-1-({2-[(1S,3R)-3-methoxycyclopentyl]quinolin-6-yl}methyl)pyrrolidin-3-yl]oxy}-1-oxo-2,3-dihydro-1H-isoindol-2-yl)piperidine-2,6-dione]	8.776
8.27	42	5.38 nM	–	–	O=C1CCC(N2Cc3cc(O[C@H]4CCN(Cc5ccc6nc(N7CC[C@]78CCOC8)ccc6c5)C4)ccc3C2=O)C(=O)N1 (stereo partly drawn) [3-(5-{[(3S)-1-({2-[(4R)-6-oxa-1-azaspiro[3.4]octan-1-yl]quinolin-6-yl}methyl)pyrrolidin-3-yl]oxy}-1-oxo-2,3-dihydro-1H-isoindol-2-yl)piperidine-2,6-dione]	7.715
8.01	34.5	12.3 nM	–	–	O=C1CCC(N2Cc3cc(O[C@H]4CCN(Cc5ccc6nc(N7C[C@@H]8C[C@H]7CO8)ncc6c5)C4)ccc3C2=O)C(=O)N1 (stereo partly drawn) [3-(5-{[(3S)-1-({2-[(1S,4S)-2-oxa-5-azabicyclo[2.2.1]heptan-5-yl]quinazolin-6-yl}methyl)pyrrolidin-3-yl]oxy}-1-oxo-2,3-dihydro-1H-isoindol-2-yl)piperidine-2,6-dione]	9.576
7.66	31.06	7.21 nM	–	–	CNc1ccc2cc(CN3CC[C@H](Oc4ccc5c(c4)CN(C4CCC(=O)NC4=O)C5=O)C3)ccc2n1 (stereo partly drawn) [3-(5-{[(3S)-1-{[2-(methylamino)quinolin-6-yl]methyl}pyrrolidin-3-yl]oxy}-1-oxo-2,3-dihydro-1H-isoindol-2-yl)piperidine-2,6-dione]	9.31
5.60	37	27.9 nM	–	–	O=C1CCC(N2Cc3cc(O[C@H]4CCN(Cc5ccc6ncccc6n5)C4)ccc3C2=O)C(=O)N1 (stereo partly drawn) [3-(5-{[(3S)-1-[(1,5-naphthyridin-2-yl)methyl]pyrrolidin-3-yl]oxy}-1-oxo-2,3-dihydro-1H-isoindol-2-yl)piperidine-2,6-dione]	54.03
8.19	40	6.07 nM	–	–	O=C1CCC(N2Cc3cc(O[C@H]4CCN(Cc5ccc6nc(N7CC[C@@]78CCOC8)ccc6c5)C4)ccc3C2=O)C(=O)N1 (stereo partly drawn) [3-(5-{[(3S)-1-({2-[(4S)-6-oxa-1-azaspiro[3.4]octan-1-yl]quinolin-6-yl}methyl)pyrrolidin-3-yl]oxy}-1-oxo-2,3-dihydro-1H-isoindol-2-yl)piperidine-2,6-dione]	7.225
